PMC11753601 (Angewandte Chemie (International Ed. in English), 2024)

Tested on: E-Box DNA
Format: binding
Details: pH 8

Substance	Binding to E-Box DNA in EMSA (in words)	Kd (read-out: KD for E-Box DNA measured by EMSA)
(AcATEENVKRRTHNVLERQRRNELKRSFFG)2K (sidechain bridge or staple) [MiniMYC 1]	no binding	–
(AcATEENVKRRTHNVLERQRRNELKRSSCFA)2-Linker (sidechain bridge or staple) [MiniMYC 3]	did not show any specific association	–
(AcVKRRTHNVLERQRRNELKRSFFALRDQIPELENNEKAPKVVILKKATAYILSAβC)2-linker (sidechain bridge or staple) [DuoMYC 7]	–	~0.174 µM
